PubChem BioAssay AID2060496 (Molecular Pharmacology Branch, DTP, NCI, 2025)

Test system: 276233-004-R-J1-PDC complex spheroid viability
Experiment: Anticancer human tumor 276233-004-R-J1-PDC patient-derived colon adenocarcinoma cell line growth inhibition [GQUAD]
Settings: for IC50: curve of first compound; for viability, T/C: stronger effect = lower value
Outline: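 Viability of tumor cells grown as complex spheroids with endothelial and stromal cells, exposed to drug combinations. Top concentration at or near clinical Cmax (else 10 microM), diluted in half-log increments.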

[1] = second compound 0.0316 µM, first compound 0.0316 µM
[2] = second compound 0.0316 µM, first compound 0.1 µM
[3] = second compound 0.0316 µM, first compound 0.316 µM
[4] = second compound 0.0316 µM, first compound 1 µM
[5] = second compound 0.0316 µM, first compound 3.16 µM
[6] = second compound 0.0316 µM, first compound 10 µM
[7] = second compound 0.1 µM, first compound 0.0316 µM
[8] = second compound 0.1 µM, first compound 0.1 µM
[9] = second compound 0.1 µM, first compound 0.316 µM
[10] = second compound 0.1 µM, first compound 1 µM
[11] = second compound 0.1 µM, first compound 3.16 µM
[12] = second compound 0.1 µM, first compound 10 µM
[13] = second compound 0.316 µM, first compound 0.0316 µM
[14] = second compound 0.316 µM, first compound 0.1 µM
[15] = second compound 0.316 µM, first compound 0.316 µM
[16] = second compound 0.316 µM, first compound 1 µM
[17] = second compound 0.316 µM, first compound 3.16 µM
[18] = second compound 0.316 µM, first compound 10 µM
[19] = second compound 1 µM, first compound 0.0316 µM
[20] = second compound 1 µM, first compound 0.1 µM
[21] = second compound 1 µM, first compound 0.316 µM
[22] = second compound 1 µM, first compound 1 µM
[23] = second compound 1 µM, first compound 3.16 µM
[24] = second compound 1 µM, first compound 10 µM
[25] = second compound 3.16 µM, first compound 0.0316 µM
[26] = second compound 3.16 µM, first compound 0.1 µM
[27] = second compound 3.16 µM, first compound 0.316 µM
[28] = second compound 3.16 µM, first compound 1 µM
[29] = second compound 3.16 µM, first compound 3.16 µM
[30] = second compound 3.16 µM, first compound 10 µM
[31] = second compound 10 µM, first compound 0.0316 µM
[32] = second compound 10 µM, first compound 0.1 µM
[33] = second compound 10 µM, first compound 0.316 µM
[34] = second compound 10 µM, first compound 1 µM
[35] = second compound 10 µM, first compound 3.16 µM
[36] = second compound 10 µM, first compound 10 µM
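Also: spheroids exposed to drugs for seven days.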
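For viability, T/C in this document: 100% = DMSO vehicle control viability.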

## C=CCn1c(=O)c2cnc(Nc3ccc(N4CCN(C)CC4)cc3)nc2n1-c1cccc(C(C)(C)O)n1 + CN(C)c1ccc(Nc2c3ccc(NC(=O)CCN4CCCC4)cc3nc3cc(NC(=O)CCN4CCCC4)ccc23)cc1
Second compound 0.0316 µM
  IC50: > 10 µM
Second compound 0.1 µM
  IC50: > 10 µM
Second compound 0.316 µM
  IC50: > 10 µM
Second compound 1 µM
  IC50: < 0.0316 µM
Second compound 3.16 µM
  IC50: 0.459 µM
Second compound 10 µM
  IC50: < 0.0316 µM
[1]
  viability, T/C: 87.6%
[2]
  viability, T/C: 86.2%
[3]
  viability, T/C: 66.3%
[4]
  viability, T/C: 68.4%
[5]
  viability, T/C: 68.6%
[6]
  viability, T/C: 88.7%
[7]
  viability, T/C: 81.6%
[8]
  viability, T/C: 80.5%
[9]
  viability, T/C: 49%
[10]
  viability, T/C: 64.7%
[11]
  viability, T/C: 53.2%
[12]
  viability, T/C: 67.9%
[13]
  viability, T/C: 81.5%
[14]
  viability, T/C: 67.3%
[15]
  viability, T/C: 54.6%
[16]
  viability, T/C: 51.6%
[17]
  viability, T/C: 54.8%
[18]
  viability, T/C: 75%
[19]
  viability, T/C: 47.1%
[20]
  viability, T/C: 56.2%
[21]
  viability, T/C: 49.7%
[22]
  viability, T/C: 42.5%
[23]
  viability, T/C: 54.7%
[24]
  viability, T/C: 74%
[25]
  viability, T/C: 56.9%
[26]
  viability, T/C: 52.5%
[27]
  viability, T/C: 57.2%
[28]
  viability, T/C: 38.1%
[29]
  viability, T/C: 52.1%
[30]
  viability, T/C: 40.2%
[31]
  viability, T/C: 41.4%
[32]
  viability, T/C: 45.5%
[33]
  viability, T/C: 53.8%
[34]
  viability, T/C: 38.9%
[35]
  viability, T/C: 47.9%
[36]
  viability, T/C: 54.6%

## C#Cc1c(F)ccc2cc(O)cc(-c3ncc4c(N5CC6CCC(C5)N6)nc(OCC56CCCN5CC(F)C6)nc4c3F)c12 (stereo unspecified) + CN(C)c1ccc(Nc2c3ccc(NC(=O)CCN4CCCC4)cc3nc3cc(NC(=O)CCN4CCCC4)ccc23)cc1
Second compound 0.0316 µM
  IC50: 3.31 µM
Second compound 0.1 µM
  IC50: 3.14 µM
Second compound 0.316 µM
  IC50: 1.3 µM
Second compound 1 µM
  IC50: 0.368 µM
Second compound 3.16 µM
  IC50: < 0.0316 µM
Second compound 10 µM
  IC50: < 0.0316 µM
[1]
  viability, T/C: 90.1%
[2]
  viability, T/C: 79%
[3]
  viability, T/C: 101%
[4]
  viability, T/C: 75.6%
[5]
  viability, T/C: 52%
[6]
  viability, T/C: 36.9%
[7]
  viability, T/C: 78.7%
[8]
  viability, T/C: 74.2%
[9]
  viability, T/C: 56.4%
[10]
  viability, T/C: 56.8%
[11]
  viability, T/C: 54.8%
[12]
  viability, T/C: 42.2%
[13]
  viability, T/C: 54.7%
[14]
  viability, T/C: 47.2%
[15]
  viability, T/C: 57.1%
[16]
  viability, T/C: 54.2%
[17]
  viability, T/C: 39%
[18]
  viability, T/C: 30.1%
[19]
  viability, T/C: 65%
[20]
  viability, T/C: 54.8%
[21]
  viability, T/C: 54.9%
[22]
  viability, T/C: 40.4%
[23]
  viability, T/C: 49.1%
[24]
  viability, T/C: 42%
[25]
  viability, T/C: 51.2%
[26]
  viability, T/C: 40%
[27]
  viability, T/C: 36.5%
[28]
  viability, T/C: 39.2%
[29]
  viability, T/C: 39.1%
[30]
  viability, T/C: 35.1%
[31]
  viability, T/C: 43.6%
[32]
  viability, T/C: 43.7%
[33]
  viability, T/C: 40.2%
[34]
  viability, T/C: 40.7%
[35]
  viability, T/C: 36.6%
[36]
  viability, T/C: 27.4%

## CCCS(=O)(=O)Nc1ccc(F)c(C(=O)c2c[nH]c3ncc(-c4ccc(Cl)cc4)cc23)c1F + CN(C)c1ccc(Nc2c3ccc(NC(=O)CCN4CCCC4)cc3nc3cc(NC(=O)CCN4CCCC4)ccc23)cc1
Second compound 0.0316 µM
  IC50: > 10 µM
Second compound 0.1 µM
  IC50: > 10 µM
Second compound 0.316 µM
  IC50: > 10 µM
Second compound 1 µM
  IC50: > 10 µM
Second compound 3.16 µM
  IC50: > 10 µM
Second compound 10 µM
  IC50: < 0.0316 µM
[1]
  viability, T/C: 81.6%
[2]
  viability, T/C: 83.2%
[3]
  viability, T/C: 78%
[4]
  viability, T/C: 102%
[5]
  viability, T/C: 91%
[6]
  viability, T/C: 65.2%
[7]
  viability, T/C: 76.4%
[8]
  viability, T/C: 80%
[9]
  viability, T/C: 78.2%
[10]
  viability, T/C: 77.1%
[11]
  viability, T/C: 71%
[12]
  viability, T/C: 70.8%
[13]
  viability, T/C: 72.9%
[14]
  viability, T/C: 64.3%
[15]
  viability, T/C: 68.8%
[16]
  viability, T/C: 63%
[17]
  viability, T/C: 65.3%
[18]
  viability, T/C: 55.1%
[19]
  viability, T/C: 60.2%
[20]
  viability, T/C: 58.2%
[21]
  viability, T/C: 56.8%
[22]
  viability, T/C: 65.2%
[23]
  viability, T/C: 53.3%
[24]
  viability, T/C: 63.4%
[25]
  viability, T/C: 62.1%
[26]
  viability, T/C: 56.6%
[27]
  viability, T/C: 50.8%
[28]
  viability, T/C: 46.1%
[29]
  viability, T/C: 59.1%
[30]
  viability, T/C: 55.6%
[31]
  viability, T/C: 33.9%
[32]
  viability, T/C: 45.9%
[33]
  viability, T/C: 40.4%
[34]
  viability, T/C: 38.2%
[35]
  viability, T/C: 39.3%
[36]
  viability, T/C: 56.6%
